Experimental data as given in patent US20230250066A1, “HERBICIDAL CINNOLINE DERIVATIVES” (SYNGENTA CROP PROTECTION AG, priority 2020, published 2023).

Experiments:
Assay type in all cases: in vivo
[1] = tested on: Ipomoea hederacea (IPOHE); assay: Pre-emergence herbicidal test; details: 1000 g/ha, evaluated after 13 days
[2] = tested on: Amaranthus retoflexus (AMARE); assay: Pre-emergence herbicidal test; details: 1000 g/ha, evaluated after 13 days
[3] = tested on: Zea mays (ZEAMX); assay: Pre-emergence herbicidal test; details: 1000 g/ha, evaluated after 13 days
[4] = tested on: Setaria faberi (SETFA); assay: Pre-emergence herbicidal test; details: 1000 g/ha, evaluated after 13 days
[5] = tested on: Echinochloa crus-galli (ECHCG); assay: Post-emergence herbicidal test; details: 1000 g/ha unless otherwise stated, evaluated after 13 days
Method: (§1) Seeds of a variety of test species are sown in standard soil in pots (Amaranthus retoflexus (AMARE), Solanum nigrum (SOLNI), Setaria faberi (SETFA), Lolium perenne (LOLPE), Echinochloa crus-galli (ECHCG), Ipomoea hederacea (IPOHE), Abutilon theophrasti (ABUTH), Zea mays (ZEAMX)). After 8 days cultivation under controlled conditions in a glasshouse (at 24° C./16° C., day/night; 14 hours light; 65% humidity), the plants are sprayed with an aqueous spray solution derived from the formulation of the technical active ingredient in acetone/water (50:50) solution containing 0.5% Tween 20 (polyoxyethelyene sorbitan monolaurate, CAS RN 9005-64-5). Compounds are applied at 1000 g/ha unless otherwise stated. The test plants are then grown in a glasshouse under controlled conditions in a glasshouse (at 24° C./16° C., day/night; 14 hours light; 65% humidity) and watered twice daily. After 13 days the test is evaluated for the percentage damage caused to the plant. The biological activities are shown in the following table on a five-point scale (5=81-100%; 4=61-80%; 3=41-60%; 2=21-40%; 1=10-20%; 0=0%;−=not tested).

[6] = tested on: Amaranthus retoflexus (AMARE); assay: Post-emergence herbicidal test; details: 1000 g/ha unless otherwise stated, evaluated after 13 days
Method: as §1

[7] = tested on: Zea mays (ZEAMX); assay: Post-emergence herbicidal test; details: 1000 g/ha unless otherwise stated, evaluated after 13 days
Method: as §1

[8] = tested on: Ipomoea hederacea (IPOHE); assay: Post-emergence herbicidal test; details: 1000 g/ha unless otherwise stated, evaluated after 13 days
Method: as §1

[9] = tested on: Abutilon theophrasti (ABUTH); assay: Post-emergence herbicidal test; details: 1000 g/ha unless otherwise stated, evaluated after 13 days
Method: as §1

[10] = tested on: Setaria faberi (SETFA); assay: Post-emergence herbicidal test; details: 1000 g/ha unless otherwise stated, evaluated after 13 days
Method: as §1

[11] = tested on: Echinochloa crus-galli (ECHCG); assay: Pre-emergence herbicidal test; details: 1000 g/ha, evaluated after 13 days
[12] = tested on: Abutilon theophrasti (ABUTH); assay: Pre-emergence herbicidal test; details: 1000 g/ha, evaluated after 13 days

| SMILES | percentage damage caused to the plant, five-point scale, IPOHE [1] | percentage damage caused to the plant, five-point scale, AMARE [2] | percentage damage caused to the plant, five-point scale, ZEAMX [3] | percentage damage caused to the plant, five-point scale, SETFA [4] | percentage damage caused to the plant, ECHCG (five-point scale) [5] | percentage damage caused to the plant, AMARE (five-point scale) [6] | percentage damage caused to the plant, ZEAMX (five-point scale) [7] | percentage damage caused to the plant, IPOHE (five-point scale) [8] | percentage damage caused to the plant, ABUTH (five-point scale) [9] | percentage damage caused to the plant, SETFA (five-point scale) [10] | percentage damage caused to the plant, five-point scale, ECHCG [11] | percentage damage caused to the plant, five-point scale, ABUTH [12] |
| --- | --- | --- | --- | --- | --- | --- | --- | --- | --- | --- | --- | --- |
| CC(C)Cc1cc(S(C)(=O)=O)c2c(=O)c(C(=O)O)nn(-c3ccc(OC(F)(F)F)cc3)c2c1 [Compound P14, 7-isobutyl-5-methylsulfonyl-4-oxo-1-[4-(trifluoromethoxy)phenyl]cinnoline-3-carboxylic acid] | 0 (0=0%) | 1 (1=10-20%) | 1 (1=10-20%) | 1 (1=10-20%) | 0 (0=0%) | 1 (1=10-20%) | 0 (0=0%) | 0 (0=0%) | 1 (1=10-20%) | 0 (0=0%) | 1 (1=10-20%) | 1 (1=10-20%) |
| CC(C)Cc1ccc2c(c1S(C)(=O)=O)c(=O)c(C(=O)O)nn2-c1ccc(OC(F)(F)F)cc1 [Compound P15, 6-isobutyl-5-methylsulfonyl-4-oxo-1-[4-(trifluoromethoxy)phenyl]cinnoline-3-carboxylic acid] | 0 (0=0%) | 1 (1=10-20%) | 0 (0=0%) | 1 (1=10-20%) | 1 (1=10-20%) | 1 (1=10-20%) | 1 (1=10-20%) | 0 (0=0%) | 1 (1=10-20%) | 1 (1=10-20%) | 1 (1=10-20%) | 1 (1=10-20%) |
| COc1ccc2c(c1S(C)(=O)=O)c(=O)c(C(=O)O)nn2-c1ccc(OC(F)(F)F)cc1 [Compound P18, 6-methoxy-5-methylsulfonyl-4-oxo-1-[4-(trifluoromethoxy)phenyl]cinnoline-3-carboxylic acid] | 0 (0=0%) | 0 (0=0%) | 1 (1=10-20%) | 0 (0=0%) | 1 (1=10-20%) | 1 (1=10-20%) | 1 (1=10-20%) | 0 (0=0%) | 1 (1=10-20%) | 2 (2=21-40%) | 1 (1=10-20%) | 0 (0=0%) |
| COc1cc(S(C)(=O)=O)c2c(=O)c(C(=O)O)nn(-c3ccc(OC(F)(F)F)cc3)c2c1 [Compound P19, 7-methoxy-5-methylsulfonyl-4-oxo-1-[4-(trifluoromethoxy)phenyl]cinnoline-3-carboxylic acid] | 0 (0=0%) | 1 (1=10-20%) | 0 (0=0%) | 5 (5=81-100%) | 2 (2=21-40%) | 1 (1=10-20%) | 1 (1=10-20%) | 1 (1=10-20%) | 1 (1=10-20%) | 3 (3=41-60%) | 2 (2=21-40%) | 0 (0=0%) |
| CS(=O)(=O)c1c(F)ccc2c1c(=O)c(C(=O)O)nn2-c1ccc(OC(F)(F)F)cc1 [Compound P20, 6-fluoro-5-methylsulfonyl-4-oxo-1-[4-(trifluoromethoxy)phenyl]cinnoline-3-carboxylic acid] | 0 (0=0%) | 0 (0=0%) | 0 (0=0%) | 0 (0=0%) | 0 (0=0%) | 0 (0=0%) | 0 (0=0%) | 0 (0=0%) | 0 (0=0%) | 0 (0=0%) | 0 (0=0%) | 0 (0=0%) |
| CS(=O)(=O)c1cc(F)cc2c1c(=O)c(C(=O)O)nn2-c1ccc(OC(F)(F)F)cc1 [Compound P21, 7-fluoro-5-methylsulfonyl-4-oxo-1-[4-(trifluoromethoxy)phenyl]cinnoline-3-carboxylic acid] | 0 (0=0%) | 0 (0=0%) | 1 (1=10-20%) | 4 (4=61-80%) | 2 (2=21-40%) | 0 (0=0%) | 0 (0=0%) | 0 (0=0%) | 0 (0=0%) | 2 (2=21-40%) | 2 (2=21-40%) | 0 (0=0%) |
| CCOC(=O)c1nn(-c2ccc(OC(F)(F)F)cc2)c2cccc(S(=O)(=O)CC)c2c1=O [Compound P22, ethyl 5-ethylsulfonyl-4-oxo-1-[4-(trifluoromethoxy)phenyl]cinnoline-3-carboxylate] | 0 (0=0%) | 0 (0=0%) | 0 (0=0%) | 0 (0=0%) | 1 (1=10-20%) | 1 (1=10-20%) | 0 (0=0%) | 1 (1=10-20%) | 1 (1=10-20%) | 1 (1=10-20%) | 0 (0=0%) | 0 (0=0%) |
